# Laboratory results: patent publication US9957251B2 (Takeda Pharmaceutical Company Limited, priority 2014, dated 2018)
# Columns and labels:
# [1] = system: human multiple myeloma RPMI8226 cells; assay: Inhibitory activity against human multiple myeloma RPMI8226 cell growth (CellTiter-Glo); assay type: cell-based; conditions: Homo sapiens, RPMI-8226, 192 h, 1 μM of the test compound, cultured for 8 days; read-out: Percent inhibition of RPMI8226 cell growth (%)
# Outline: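 RPMI8226 cells (300/well) cultured 1 day at 37 °C, 5% CO2, then given compound at 1 μM for 8 days. ATP luminescence (CellTiter-Glo) read; percent inhibition relative to 0.1% DMSO wells.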
# CDK8/CycC = target: T1, CDK8/CycC (Homo sapiens, UniProt P49336); assay: CDK8 inhibitory activity (TR-FRET, Kinase Tracer-236 displacement); assay type: binding; conditions: 1 μM of the test compound; read-out: Percent inhibition of CDK8 activity (%)
# T1 construct: purchased Carna Biosciences
# T1 sequence (P49336 whole entry): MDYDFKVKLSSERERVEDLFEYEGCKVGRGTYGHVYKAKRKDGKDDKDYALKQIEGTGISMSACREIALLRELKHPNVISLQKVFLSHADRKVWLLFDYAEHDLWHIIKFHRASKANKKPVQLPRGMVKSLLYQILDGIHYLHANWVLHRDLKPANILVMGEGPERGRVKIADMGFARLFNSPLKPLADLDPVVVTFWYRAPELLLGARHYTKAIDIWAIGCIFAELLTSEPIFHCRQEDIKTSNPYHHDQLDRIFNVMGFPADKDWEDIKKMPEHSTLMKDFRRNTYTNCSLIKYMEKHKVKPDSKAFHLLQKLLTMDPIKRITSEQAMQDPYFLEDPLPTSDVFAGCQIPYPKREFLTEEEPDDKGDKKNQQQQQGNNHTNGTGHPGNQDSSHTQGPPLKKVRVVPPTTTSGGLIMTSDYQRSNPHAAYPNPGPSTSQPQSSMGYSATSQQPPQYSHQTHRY
# T1 sequence (P24863 whole entry partner): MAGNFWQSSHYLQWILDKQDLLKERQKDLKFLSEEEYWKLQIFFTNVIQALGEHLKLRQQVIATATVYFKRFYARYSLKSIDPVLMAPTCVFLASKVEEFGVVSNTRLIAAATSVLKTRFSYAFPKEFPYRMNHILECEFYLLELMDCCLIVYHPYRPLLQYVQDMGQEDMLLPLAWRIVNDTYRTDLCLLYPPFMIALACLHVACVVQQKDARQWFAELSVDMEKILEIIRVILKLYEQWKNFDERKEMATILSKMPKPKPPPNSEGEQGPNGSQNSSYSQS
# Outline: (§1)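 Binding assay measuring displacement of Kinase Tracer-236 (60 nM in the added mix) by compound, using Eu-cryptate anti-GST antibody with CDK8/CycC (84 ng/mL) or CDC2L6/CycC (87 ng/mL) solutions. After 1 h at room temperature, TR-FRET read at 615 and 665 nm (excitation 320 nm).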
# CDK19 (CDC2L6/CycC) = target: T2, CDK19 (CDC2L6/CycC) (Homo sapiens, UniProt Q9BWU1); assay: CDK19 inhibitory activity (TR-FRET, Kinase Tracer-236 displacement); assay type: binding; conditions: 1 μM of the test compound; read-out: Percent inhibition of CDK19 activity (%)
# T2 construct: purchased Carna Biosciences
# T2 sequence (Q9BWU1 whole entry): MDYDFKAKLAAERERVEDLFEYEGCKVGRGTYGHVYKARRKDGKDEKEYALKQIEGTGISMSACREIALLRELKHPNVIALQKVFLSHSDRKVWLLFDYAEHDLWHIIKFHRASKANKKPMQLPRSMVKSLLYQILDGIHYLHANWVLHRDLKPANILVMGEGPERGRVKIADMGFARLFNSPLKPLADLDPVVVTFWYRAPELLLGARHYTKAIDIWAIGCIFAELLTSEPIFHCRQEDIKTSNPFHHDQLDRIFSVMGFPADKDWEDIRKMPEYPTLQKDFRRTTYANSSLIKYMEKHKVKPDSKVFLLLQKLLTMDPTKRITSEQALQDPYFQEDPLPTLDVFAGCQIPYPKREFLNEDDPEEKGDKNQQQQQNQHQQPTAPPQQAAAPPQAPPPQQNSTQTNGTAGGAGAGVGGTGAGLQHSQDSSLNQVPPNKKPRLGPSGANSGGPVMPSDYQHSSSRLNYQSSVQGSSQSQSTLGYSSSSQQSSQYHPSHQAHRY
# T2 sequence (P24863 whole entry partner): as the sequence (P24863 whole entry partner) above
# Outline: as §1
SMILES,inhibition at 1 µM [1] [%],inhibition at 1 µM (CDK8/CycC) [%],inhibition at 1 µM (CDK19 (CDC2L6/CycC)) [%]
"CC(C)(O)Cc1ccc(NC(=O)/C=C/c2cncc(F)c2-c2cnn(C3CC3)c2)c(F)c1 [Example 332, (2E)-3-(4-(1-Cyclopropyl-1H-pyrazol-4-yl)-5-fluoropyridin-3-yl)-N-(2-fluoro-4-(2-hydroxy-2-methylpropyl)phenyl)acrylamide]",60,102,99
"Cn1cc(-c2ccncc2/C=C/C(=O)Nc2ccc(CC#N)cc2)cn1 [Example 284, (2E)-N-(4-(cyanomethyl)phenyl)-3-(4-(1-methyl-1H-pyrazol-4-yl)pyridin-3-yl)acrylamide]",57,92,95
"CC(C)(F)Cc1ccc(NC(=O)/C=C/c2cnccc2-c2cnn(C3CC3)c2)cc1 [Example 293, (2E)-3-(4-(1-cyclopropyl-1H-pyrazol-4-yl)pyridin-3-yl)-N-(4-(2-fluoro-2-methylpropyl)phenyl)acrylamide]",61,102,95
"O=C(/C=C/c1cnccc1-c1ccc2[nH]cnc2c1)Nc1ccc(CN2CCOCC2)cc1 [Example 241, (2E)-3-(4-(1H-benzimidazol-5-yl)pyridin-3-yl)-N-(4-(morpholin-4-ylmethyl)phenyl)acrylamide]",66,99,101
"O=C(/C=C/c1cnccc1-c1ccc2nccn2c1)Nc1ccc(CN2CCOCC2)cc1 [Example 222, (2E)-3-(4-(imidazo[1,2-a]pyridin-6-yl)pyridin-3-yl)-N-(4-(morpholin-4-ylmethyl)phenyl)acrylamide]",52,101,100
"Cn1cc(-c2ccncc2/C=C/C(=O)Nc2ccc(CC(C)(C)O)cc2)cn1 [Example 123, (2E)-N-(4-(2-hydroxy-2-methylpropyl)phenyl)-3-(4-(1-methyl-1H-pyrazol-4-yl)pyridin-3-yl)acrylamide]",62,99,101
"Cn1cc(-c2ccncc2/C=C/C(=O)Nc2ccc(Oc3ccncc3)cc2)cn1 [Example 137, (2E)-3-(4-(1-methyl-1H-pyrazol-4-yl)pyridin-3-yl)-N-(4-(pyridin-4-yloxy)phenyl)acrylamide]",54,95,96
"Cn1cc(-c2ccncc2/C=C/C(=O)Nc2ccc(CNC3CC3)cc2)cn1 [Example 49, (2E)-N-(4-((cyclopropylamino)methyl)phenyl)-3-(4-(1-methyl-1H-pyrazol-4-yl)pyridin-3-yl)acrylamide]",56,95,96
"O=C(/C=C/c1cnccc1-c1cnn(CC2CC2)c1)Nc1ccc(CN2CCOCC2)cc1 [Example 45, (2E)-3-(4-(1-(Cyclopropylmethyl)-1H-pyrazol-4-yl)pyridin-3-yl)-N-(4-(morpholin-4-ylmethyl)phenyl)acrylamide]",55,98,99
"O=C(/C=C/c1cnccc1-c1cn[nH]c1)Nc1ccc(CN2CCOCC2)cc1 [Example 33, (2E)-N-(4-(morpholin-4-ylmethyl)phenyl)-3-(4-(1H-pyrazol-4-yl)pyridin-3-yl)acrylamide]",61,100,99
"Cn1cc(-c2ccncc2/C=C/C(=O)Nc2ccc(Cn3ccnc3)cc2)cn1 [Example 275, (2E)-N-(4-(1H-Imidazol-1-ylmethyl)phenyl)-3-(4-(1-methyl-1H-pyrazol-4-yl)pyridin-3-yl)acrylamide]",64,102,98
"CC1CN(Cc2ccc(NC(=O)/C=C/c3cnccc3-c3cnn(C)c3)cc2)CCO1 (stereo not drawn) [Example 55, (2E)-N-(4-((2-methylmorpholin-4-yl)methyl)phenyl)-3-(4-(1-methyl-1H-pyrazol-4-yl)pyridin-3-yl)acrylamide]",55,99,97
"Cn1cnc2ccc(-c3ccncc3/C=C/C(=O)Nc3ccc(CN4CCOCC4)cc3)cc21 [Example 234, (2E)-3-(4-(1-methyl-1H-benzimidazol-6-yl)pyridin-3-yl)-N-(4-(morpholin-4-ylmethyl)phenyl)acrylamide]",65,102,102
"O=C(/C=C/c1cnccc1-c1cnn(C2CC2)c1)Nc1ccc2c(c1)CN(CC(F)(F)F)CC2 [Example 247, (2E)-3-(4-(1-Cyclopropyl-1H-pyrazol-4-yl)pyridin-3-yl)-N-(2-(2,2,2-trifluoroethyl)-1,2,3,4-tetrahydroisoquinolin-7-yl)acrylamide]",63,98,102
"Cn1cc(-c2ccncc2/C=C/C(=O)Nc2ccc(CN3CCOCC3)c(C#N)c2)cn1 [Example 150, (2E)-N-(3-Cyano-4-(morpholin-4-ylmethyl)phenyl)-3-(4-(1-methyl-1H-pyrazol-4-yl)pyridin-3-yl)acrylamide]",54,100,99
"COc1ncc(-c2ccncc2/C=C/C(=O)Nc2ccc(CN3CCOCC3)cc2)s1 [Example 221, (2E)-3-(4-(2-Methoxy-1,3-thiazol-5-yl)pyridin-3-yl)-N-(4-(morpholin-4-ylmethyl)phenyl)acrylamide]",63,99,98
"COc1ncc(-c2ccncc2/C=C/C(=O)Nc2ccc(CN3CCOCC3)cc2F)s1 [Example 250, (2E)-N-(2-Fluoro-4-(morpholin-4-ylmethyl)phenyl)-3-(4-(2-methoxy-1,3-thiazol-5-yl)pyridin-3-yl)acrylamide]",63,99,96
"O=C(/C=C/c1cnccc1-c1cnn(C2CC2)c1)Nc1ccc2c(c1)CN(CC(F)(F)CO)C2 [Example 340, (2E)-3-(4-(1-cyclopropyl-1H-pyrazol-4-yl)pyridin-3-yl)-N-(2-(2,2-difluoro-3-hydroxypropyl)-2,3-dihydro-1H-isoindol-5-yl)acrylamide]",65,102,96
"CCn1cc(-c2ccncc2/C=C/C(=O)Nc2ccc(CN3CCOCC3)cc2)cn1 [Example 92, (2E)-3-(4-(1-Ethyl-1H-pyrazol-4-yl)pyridin-3-yl)-N-(4-(morpholin-4-ylmethyl)phenyl)acrylamide]",63,96,100
"Cn1cc(-c2ccncc2/C=C/C(=O)Nc2ccc(CNC3CC(F)(F)C3)cc2)cn1 [Example 89, (2E)-N-(4-(((3,3-difluorocyclobutyl)amino)methyl)phenyl)-3-(4-(1-methyl-1H-pyrazol-4-yl)pyridin-3-yl)acrylamide]",63,96,97
"Cn1cc(-c2ccncc2/C=C/C(=O)Nc2cc(F)c(CN3CCOCC3)cc2F)cn1 [Example 237, (2E)-N-(2,5-difluoro-4-(morpholin-4-ylmethyl)phenyl)-3-(4-(1-methyl-1H-pyrazol-4-yl)pyridin-3-yl)acrylamide]",66,94,91
